Data: ChEMBL document CHEMBL5291721, “A preclinical secondary pharmacology resource illuminates target-adverse drug reaction associations of marketed drugs” (Nat Commun, 2023)
Each block holds one compound with its values, some of them ahead of it.

Columns and labels:
[1] = target: T1, Prostaglandin G/H synthase 1 (Rattus norvegicus, UniProt Q63921); format: functional
T1 sequence (Q63921 whole entry): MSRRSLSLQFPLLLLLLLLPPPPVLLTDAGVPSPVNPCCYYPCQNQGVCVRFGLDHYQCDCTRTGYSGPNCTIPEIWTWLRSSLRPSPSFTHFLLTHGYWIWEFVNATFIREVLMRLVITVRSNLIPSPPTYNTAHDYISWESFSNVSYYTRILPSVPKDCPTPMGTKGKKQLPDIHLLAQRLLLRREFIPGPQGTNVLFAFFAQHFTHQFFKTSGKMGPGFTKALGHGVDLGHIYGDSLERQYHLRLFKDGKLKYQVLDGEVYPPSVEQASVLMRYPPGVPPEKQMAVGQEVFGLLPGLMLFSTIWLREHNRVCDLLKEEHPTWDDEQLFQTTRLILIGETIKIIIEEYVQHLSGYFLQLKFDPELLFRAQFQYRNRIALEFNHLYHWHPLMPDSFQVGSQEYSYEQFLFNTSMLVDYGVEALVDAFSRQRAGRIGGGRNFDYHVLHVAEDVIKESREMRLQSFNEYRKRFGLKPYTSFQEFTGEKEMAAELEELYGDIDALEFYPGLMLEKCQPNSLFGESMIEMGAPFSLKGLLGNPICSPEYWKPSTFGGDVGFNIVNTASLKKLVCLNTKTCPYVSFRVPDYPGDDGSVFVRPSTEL

[2] = target: T2, Alpha-1A adrenergic receptor (Homo sapiens, UniProt P35348); format: functional, cell-based
T2 sequence (P35348 whole entry): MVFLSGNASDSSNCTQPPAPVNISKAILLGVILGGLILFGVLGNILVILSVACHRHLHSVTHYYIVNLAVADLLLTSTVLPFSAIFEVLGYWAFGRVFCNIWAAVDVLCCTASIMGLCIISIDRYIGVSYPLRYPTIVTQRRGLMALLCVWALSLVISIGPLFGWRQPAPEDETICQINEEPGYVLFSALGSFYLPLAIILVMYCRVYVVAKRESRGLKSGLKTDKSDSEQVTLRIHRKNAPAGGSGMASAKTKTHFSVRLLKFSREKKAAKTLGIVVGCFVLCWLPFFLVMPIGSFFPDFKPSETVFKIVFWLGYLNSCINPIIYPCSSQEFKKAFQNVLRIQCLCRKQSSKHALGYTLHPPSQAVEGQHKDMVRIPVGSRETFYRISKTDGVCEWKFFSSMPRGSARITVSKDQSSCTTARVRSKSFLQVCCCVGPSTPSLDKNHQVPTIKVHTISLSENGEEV

[3] = target: T3, Oxysterols receptor LXR-beta (Homo sapiens, UniProt P55055); format: functional
T3 sequence (P55055 whole entry): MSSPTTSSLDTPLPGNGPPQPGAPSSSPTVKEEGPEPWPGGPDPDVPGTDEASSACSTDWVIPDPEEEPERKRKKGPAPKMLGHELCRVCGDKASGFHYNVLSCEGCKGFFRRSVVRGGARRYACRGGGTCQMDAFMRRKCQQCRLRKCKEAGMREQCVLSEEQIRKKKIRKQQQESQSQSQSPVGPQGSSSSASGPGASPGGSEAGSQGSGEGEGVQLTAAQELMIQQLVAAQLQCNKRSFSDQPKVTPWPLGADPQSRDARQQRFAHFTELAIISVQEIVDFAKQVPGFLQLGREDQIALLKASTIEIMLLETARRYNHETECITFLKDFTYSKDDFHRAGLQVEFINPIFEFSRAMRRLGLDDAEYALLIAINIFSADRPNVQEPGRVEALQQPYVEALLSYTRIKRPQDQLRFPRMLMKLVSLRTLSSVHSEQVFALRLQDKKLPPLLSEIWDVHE

[4] = target: T4, Retinoic acid receptor gamma (Homo sapiens, UniProt P13631); format: functional, cell-based
T4 sequence (P13631 whole entry): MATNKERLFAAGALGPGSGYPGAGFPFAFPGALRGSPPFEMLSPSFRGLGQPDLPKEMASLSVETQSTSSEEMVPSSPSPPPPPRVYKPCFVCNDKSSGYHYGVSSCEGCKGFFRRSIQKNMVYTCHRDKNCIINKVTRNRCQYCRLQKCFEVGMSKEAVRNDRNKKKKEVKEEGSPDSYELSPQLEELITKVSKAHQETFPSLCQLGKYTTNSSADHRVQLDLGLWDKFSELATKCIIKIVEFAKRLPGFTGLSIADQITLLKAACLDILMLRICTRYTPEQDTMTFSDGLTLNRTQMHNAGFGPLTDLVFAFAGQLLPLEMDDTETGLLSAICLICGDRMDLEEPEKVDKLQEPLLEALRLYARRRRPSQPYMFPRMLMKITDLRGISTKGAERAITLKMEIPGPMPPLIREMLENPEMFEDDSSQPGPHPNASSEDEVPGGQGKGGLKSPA

[5] = target: T5, Nuclear receptor subfamily 1 group I member 3 (Homo sapiens, UniProt Q14994); format: functional
T5 sequence (Q14994 whole entry): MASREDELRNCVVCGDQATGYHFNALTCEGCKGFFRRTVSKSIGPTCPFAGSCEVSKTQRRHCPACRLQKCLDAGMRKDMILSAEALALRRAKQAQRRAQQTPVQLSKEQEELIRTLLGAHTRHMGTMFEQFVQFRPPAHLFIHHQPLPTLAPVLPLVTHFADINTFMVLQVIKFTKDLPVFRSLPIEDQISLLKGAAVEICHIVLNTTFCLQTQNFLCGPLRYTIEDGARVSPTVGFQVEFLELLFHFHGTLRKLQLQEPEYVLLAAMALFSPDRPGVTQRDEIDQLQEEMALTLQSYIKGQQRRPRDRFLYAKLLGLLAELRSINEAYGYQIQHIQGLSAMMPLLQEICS

[6] = target: T6, Retinoic acid receptor alpha (Homo sapiens, UniProt P10276); format: functional, cell-based
T6 sequence (P10276 whole entry): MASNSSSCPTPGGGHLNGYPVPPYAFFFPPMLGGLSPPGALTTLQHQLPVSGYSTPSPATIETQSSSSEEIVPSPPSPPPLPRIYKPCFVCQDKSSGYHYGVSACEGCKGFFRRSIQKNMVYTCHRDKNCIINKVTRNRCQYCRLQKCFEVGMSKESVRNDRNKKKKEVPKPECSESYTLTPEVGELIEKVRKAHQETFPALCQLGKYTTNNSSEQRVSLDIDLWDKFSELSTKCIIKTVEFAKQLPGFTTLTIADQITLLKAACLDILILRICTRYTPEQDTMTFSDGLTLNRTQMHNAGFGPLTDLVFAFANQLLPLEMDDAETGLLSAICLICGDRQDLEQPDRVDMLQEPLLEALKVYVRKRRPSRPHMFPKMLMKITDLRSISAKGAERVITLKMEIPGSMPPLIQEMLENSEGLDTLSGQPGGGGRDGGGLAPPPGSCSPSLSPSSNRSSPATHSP
Also: assay procedure not described here.

- AC50 [1]: 0.0782 µM
Compound: COc1ccc(C(Cl)=C(c2ccc(OC)cc2)c2ccc(OC)cc2)cc1 [CHLOROTRIANISENE]

- AC50 [2]: 0.0093 µM
Compound: N=C(N)NC(=O)Cc1c(Cl)cccc1Cl [GUANFACINE]

Compound: CC(=O)N1CCN(c2ccc(OCC3COC(Cn4ccnc4)(c4ccc(Cl)cc4Cl)O3)cc2)CC1 (stereo unspecified) [KETOCONAZOLE]
- AC50 [3]: > 30 µM
- AC50 [4]: > 30 µM
- AC50 [5]: 5 µM
- AC50 [6]: > 30 µM
